These results are taken from US20220298138A1, “ENZYME INHIBITORS” (KALVISTA PHARMACEUTICALS LIMITED, priority 2019, published 2022).

For one assay, the target named is T1, Human Factor XIIa (Homo sapiens, UniProt P00748).
T1 construct: purchased Enzyme Research Laboratories
T1 sequence (P00748 373-615 limits assumed): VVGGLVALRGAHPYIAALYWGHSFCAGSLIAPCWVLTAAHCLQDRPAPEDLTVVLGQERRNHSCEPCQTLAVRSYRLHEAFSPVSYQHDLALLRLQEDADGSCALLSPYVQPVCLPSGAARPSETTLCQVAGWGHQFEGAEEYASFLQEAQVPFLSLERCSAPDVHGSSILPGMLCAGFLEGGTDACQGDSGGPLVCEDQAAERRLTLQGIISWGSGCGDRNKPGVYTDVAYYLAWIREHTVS
Description: Factor XIIa inhibitory activity in vitro (fluorogenic substrate H-DPro-Phe-Arg-AFC). In kind it is biochemical. Conditions: 25° C., class symbols, read-out: Human FXIIa IC50. In outline:
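Enzyme incubated at 25° C with fluorogenic substrate H-DPro-Phe-Arg-AFC and a range of compound concentrations. Residual activity taken as initial reaction rate from […], giving IC50.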

For another assay, the target named is T2, Human FXIa (Homo sapiens, UniProt P03951).
T2 construct: Human FXIa (Enzyme Research Laboratories) was incubated; purchased Enzyme Research Laboratories
T2 sequence (P03951 388-625 limits assumed): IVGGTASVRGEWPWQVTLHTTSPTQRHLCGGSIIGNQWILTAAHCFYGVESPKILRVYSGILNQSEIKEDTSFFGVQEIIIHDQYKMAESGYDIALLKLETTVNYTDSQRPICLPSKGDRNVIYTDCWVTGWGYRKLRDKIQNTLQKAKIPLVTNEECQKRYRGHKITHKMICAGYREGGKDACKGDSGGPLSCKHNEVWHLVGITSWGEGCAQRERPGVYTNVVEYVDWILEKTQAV
T2 sequence (P03951 19-387 partner limits assumed): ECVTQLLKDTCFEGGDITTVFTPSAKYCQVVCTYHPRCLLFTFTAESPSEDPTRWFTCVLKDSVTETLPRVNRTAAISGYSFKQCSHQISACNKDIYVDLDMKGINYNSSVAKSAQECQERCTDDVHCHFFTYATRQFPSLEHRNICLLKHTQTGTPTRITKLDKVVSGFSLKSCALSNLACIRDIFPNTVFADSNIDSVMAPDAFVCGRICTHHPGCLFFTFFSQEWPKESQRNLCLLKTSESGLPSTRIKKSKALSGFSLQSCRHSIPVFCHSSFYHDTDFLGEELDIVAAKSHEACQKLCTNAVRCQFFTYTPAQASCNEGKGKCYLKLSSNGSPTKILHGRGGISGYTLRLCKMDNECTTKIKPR
Description: FXIa inhibitory activity in vitro (fluorogenic substrate Z-Gly-Pro-Arg-AFC), selectivity. In kind it is biochemical. Conditions: category scale, 25° C. Here is the method: Determination of the % Inhibition for FXIa
Human FXIa (Enzyme Research Laboratories) was incubated at 25° C. with the fluorogenic substrate Z-Gly-Pro-Arg-AFC and various concentrations of the test compound. Residual enzyme activity (initial rate of reaction) was determined by measuring the change in fluorescence at 410 nm and the IC50 value for the test compound was determined.

For the compound `CC(C)c1ccnc(C(=O)N[C@@H](Cc2ccc(F)c(F)c2)C(=O)NCc2ccc3c(N)nccc3c2)n1` [Example 0.99], the IC50 on Human Factor XIIa is 10 to 40 µM; at Human FXIa, over 40 µM.

Take `COc1ccc(-n2ccc(C(F)(F)F)n2)c(CNC(=O)[C@H](C)NC(=O)[C@@H](N)CCc2ccccc2)c1F` [Example 9.05]: the 50% inhibitory concentration (IC50) on Human Factor XIIa was in the range of 10 to 40 µM; against Human FXIa it was 1 to 3 µM.

Regarding `C[C@H](NC(=O)[C@H](N)CCCc1ccccc1)C(=O)NCc1ccc2c(N)nccc2c1` [Example 6.18], the 50% inhibitory concentration (IC50) at Human Factor XIIa and at Human FXIa was 3 to 10 µM throughout.

For the compound `C[C@H](NC(=O)[C@H](N)CCc1ccccc1)C(=O)NCc1cnc2[nH]cc(Cl)c2c1` [Example 9.01], the concentration for half-maximal inhibition (IC50) lay within 0.28 to 1 µM on Human Factor XIIa and 10 to 40 µM on Human FXIa.

As for `C[C@H](NC(=O)[C@H](N)CCc1ccccc1)C(=O)NCc1ccc2c(N)nccc2c1` [Example 6.09], the half-inhibitory concentration (IC50) lay in the range of 0.1 to 0.279 µM on Human Factor XIIa and 10 to 40 µM against Human FXIa.

`C[C@@H]1CCC[C@H](C)N1CC(=O)N1CC2CC(C(=O)NCc3ccc4c(N)nccc4c3)C1C2` (some centres unmarked) [Example 32.14]: the IC50 is 10 to 40 µM on Human Factor XIIa and over 40 µM at Human FXIa.

Take `CC(C)N[C@H](CCc1ccccc1)C(=O)N1CCC[C@H]1C(=O)NCc1cnc2[nH]cc(Cl)c2c1` [Example 27.01]: the values for the IC50 on Human Factor XIIa and against Human FXIa were 0.28 to 1 µM and over 40 µM, respectively.

With `N[C@H](CCCCN1CCC(F)(F)C1)C(=O)N1CC[C@H]1C(=O)NCc1cnc2[nH]cc(Cl)c2c1` [Example 10.04], the IC50 is 0.28 to 1 µM at Human Factor XIIa and over 40 µM at Human FXIa.

As to `COc1cc2c(N)nccc2cc1CNC(=O)[C@H](C)NC(=O)[C@H](N)CCc1ccccc1` [Example 6.22], the figures for the concentration for half-maximal inhibition (IC50) at Human Factor XIIa and at Human FXIa were 10 to 40 µM and 3 to 10 µM, respectively.

Consider `C[C@@H]1CCC[C@H](C)N1CC(=O)NC1(C(=O)NCc2ccc3c(N)nccc3c2)CCC1` [Example 39.10], for which the figures for the IC50 at Human Factor XIIa and at Human FXIa were 3 to 10 µM and 10 to 40 µM, respectively.

As to `CC(C)N[C@H](CCc1ccccc1)C(=O)N[C@@H](C)C(=O)NCc1cc2c(N)nccc2s1` [Example 9.27, (2R)—N-[(1S)-1-[({4-Aminothieno[3,2-c]pyridin-2-yl}methyl)carbamoyl]ethyl]-2-(isopropylamino)-4-phenylbutanamide], the results for the IC50 on Human Factor XIIa and at Human FXIa were 0.03 to 0.1 µM and over 40 µM, respectively.

With `CC(C)n1ccc(C(=O)N[C@@H](Cc2ccc(F)c(F)c2)C(=O)NCc2ccc3c(N)nccc3c2)cc1=O` [Example 0.96], the IC50 is 3 to 10 µM at Human Factor XIIa and over 40 µM against Human FXIa.

Turning to `C[C@H](NC(=O)[C@@H](CCc1ccccc1)NC(=O)OC(C)(C)C)C(=O)NCc1ccc2c(N)nccc2c1` [Example 6.25], the IC50 on Human Factor XIIa lay within 3 to 10 µM; against Human FXIa, 10 to 40 µM.

For `CC(C)N[C@H](CCc1ccccc1)C(=O)N[C@@H](C)C(=O)NCc1cc2c(N)nccc2o1` [Example 9.24], the IC50 at Human Factor XIIa is 0.1 to 0.279 µM; on Human FXIa, over 40 µM.

With `Nc1nccc2cc(CNC(=O)[C@H]3CCC[C@@H]3NC(=O)[C@H](N)CCc3ccccc3)ccc12` [Example 17.07], the IC50 was in the range of 10 to 40 µM at Human Factor XIIa and 3 to 10 µM against Human FXIa.

Take `CC(C)N[C@H](CCc1ccccc1)C(=O)N1CC[C@H]1C(=O)NCc1cnc2[nH]cc(Cl)c2c1` [Example 27.08]: the half-inhibitory concentration (IC50) on Human Factor XIIa was 0.28 to 1 µM; against Human FXIa, over 40 µM.

Take `C[C@H](NC(=O)[C@H]1C[C@@H](c2ccccc2)CN1)C(=O)NCc1ccc2c(N)nccc2c1` [Example 45.01]: the figures for the IC50 at Human Factor XIIa and at Human FXIa were 0.28 to 1 µM and 3 to 10 µM, respectively.

In the case of `C[C@H](NC(=O)[C@H](N)CCc1ccccc1)C(=O)NCc1cc2c(N)nccc2s1` [Example 9.07, (2R)—N-[(1S)-1-[({4-Aminothieno[3,2-c]pyridin-2-yl}methyl)carbamoyl]ethyl]-2-amino-4-phenylbutanamide], the half-inhibitory concentration (IC50) at Human Factor XIIa was 0.1 to 0.279 µM; on Human FXIa, over 40 µM.

Turning to `N[C@H](CCc1ccccc1)C(=O)N1CCC1C(=O)NCc1cnc2[nH]cc(Cl)c2c1` (some centres unmarked) [Example 10.02], the IC50 at Human Factor XIIa was 0.28 to 1 µM; at Human FXIa it was over 40 µM.

On to `Nc1nccc2cc(CNC(=O)[C@H](Cc3ccc(F)c(F)c3)NC(=O)[C@H](N)CCCCN3CCCCC3)ccc12` [Example 12.01], for which the IC50 at Human Factor XIIa was 0.03 to 0.1 µM; at Human FXIa, over 40 µM.

Regarding `CC(C)N[C@H](CCCCN1CCCCC1)C(=O)N[C@@H](C)C(=O)NCc1ccc2c(N)nccc2c1` [Example 12.02], the IC50 at Human Factor XIIa was in the range of 0.28 to 1 µM; against Human FXIa, 10 to 40 µM.

For `COc1ccc(C[C@H](NC(=O)[C@@H](CCCCN2CCCCC2)NC(C)C)C(=O)NCc2ccc3c(N)nccc3c2)cc1` [Example 12.09], the values for the 50% inhibitory concentration (IC50) on Human Factor XIIa and against Human FXIa were 1 to 3 µM and over 40 µM, respectively.

On to `CC(C)c1cc(C(=O)N[C@@H](Cc2ccc(F)c(F)c2)C(=O)NCc2ccc3c(N)nccc3c2)nc2ncnn12` [Example 0.64, (S)—N-(1-(((1-Aminoisoquinolin-6-yl)methyl)amino)-3-(3,4-difluorophenyl)-1-oxopropan-2-yl)-7-isopropyl-[1,2,4]triazolo[1,5-a]pyrimidine-5-carboxamide], for which the IC50 on Human Factor XIIa was 0.28 to 1 µM; on Human FXIa it was over 40 µM.

Regarding `Nc1nccc2cc(CNC(=O)[C@@H]3C[C@@H](c4ccccc4)CN3C(=O)[C@H](N)CCc3ccccc3)ccc12` [Example 43.03], the IC50 at Human Factor XIIa is 0.28 to 1 µM; against Human FXIa, 10 to 40 µM.

Consider `Nc1nccc2cc(CNC(=O)CNC(=O)c3ccc(-c4ccncc4)cc3)ccc12` [Example 18.108], for which the IC50 at Human Factor XIIa is 10 to 40 µM; against Human FXIa, over 40 µM.

In general, IC50 refers to the concentration at which inhibition is half-maximal.
